This note sets out measurements from patent US10738097B2, “Interferon-beta analog peptide” (priority 2017, dated 2020).

Common to all, as to format: in vivo, mouse
One test deals with CD11b positive cells. Kind of test: CD11b positive cells in cerebral cortex of EAE mice. Conditions: 10 and 20 mg/kg, particularly 20 mg/kg, day 21. The protocol:
(§1) Furthermore, brain inflammatory response after IFNβ analog peptide treatment as the IFNβ analog peptide was evaluated by measuring the number of IL-17 positive cells, CD11b positive cells, and CD45 positive cells. IL-17 is the most important pro-inflammatory cytokine produced by T-helper cells, CD11b is an activated macrophages and microglia marker, and CD45 is a general leukocytes marker.
(§2) After 21 days of EAE induction, mice were euthanized and were transcardially perfused with PBS. Then, the brains were dissected; cerebral cortex was isolated and snap-frozen in liquid nitrogen.

The next test concerns CD45 positive cells. The test is described as follows: CD45 positive cells in cerebral cortex of EAE mice. Conditions: 10 and 20 mg/kg, particularly 20 mg/kg, day 21. The protocol: as §1, §2
The subject of test [1] is tumor necrosis factor-alpha (TNFα). Kind of test: Plasma TNFα of EAE mice, ELISA. Conditions: 21 days after EAE induction. The procedure:
(§3) Moreover, after 21 days of EAE induction, mice were euthanized and their blood was obtained via cardiac puncture and plasma was prepared. Expression levels of tumor necrosis factor-alpha (TNFα) and interleukin 1β (IL1β) as circulating inflammatory biomarkers were measured in the plasma using quantitative enzyme-linked immunosorbent assay (ELISA) kits.

For test [2], the system named is matrix metalloproteinase 9 (MMP9). Kind of test: MMP9 gene expression in brain tissue of EAE mice, quantitative real-time PCR. Conditions: 20 mg/kg. The protocol: (§4) In this example, effects of the IFNβ analog peptide as the IFNβ analog peptide on the expression of some related inflammations mediators such as matrix metalloproteinase 2 (MMP2) and matrix metalloproteinase 9 (MMP9) were studied using quantitative real-time polymerase chain reaction (PCR).
(§5) The EAE mice were treated with PBS as the vehicle group, and dosage of the IFNβ analog peptide and IFNβ was 20 mg/kg in IFNβ analog peptide-treated mice and IFNβ-treated mice groups. After that RNA of the cells was extracted and their cDNA was synthesized.

A further test relates to interleukin 1β (IL1β). Kind of test: Plasma IL1β of EAE mice, ELISA. Conditions: 21 days after EAE induction. The procedure:
as §3
Background: ELISA stands for enzyme-linked immunosorbent assay.

The subject of another test is IL-17 positive cells. Kind of test: IL-17 positive cells in cerebral cortex of EAE mice. Conditions: 10 and 20 mg/kg, particularly 20 mg/kg, day 21. The procedure:
as §1, §2

Test [3] has as its system matrix metalloproteinase 2 (MMP2). Kind of test: MMP2 gene expression in brain tissue of EAE mice, quantitative real-time PCR. The conditions noted are these: 20 mg/kg. The protocol: as §4, §5
In another test the test system is EAE-induced C57BL/6 mice. The test is described as follows: Clinical score in MOG-induced experimental autoimmune encephalomyelitis (EAE). The conditions noted are these: IFNβ analog peptide = SEQ ID No. 1. The procedure: In this example, therapeutic effects of the IFNβ analog peptide with SEQ ID No. 1 on the development of progressive experimental autoimmune encephalomyelitis (EAE) were studied. At first, EAE was induced in 8 weeks old C57BL/6 male mice with a weight between 20 grams and 25 grams. In order to induce EAE, mice were anesthetized with isoflurane and subcutaneously injected with 100 μl of MOG (myelin oligodendrocyte glycoprotein) with a concentration of about 2.5 g/l suspended in 100 μl complete Freund's adjuvant (CFA) into the hind flank. Mice were also intraperitoneally injected with 400 ng of pertussis toxin in 200 μl of phosphate buffered saline (PBS). A second, identical injection of pertussis toxin was given two days following the first immunization. Injections were distributed over four spots, for example about 100 μl per site across the flank areas. […]
After that, in order to conduct clinical evaluation, mice of the experimental groups were blinded scored as follows: score 0 for no overt signs of disease, score 1 for limp tail, score 2 for limp tail and hind limb weakness, score 3 for partial hind limb paralysis of one side (hemiparesis) or both sides (paraparesis), score 4 for complete hind limb paralysis of one side (hemiplegia) or both sides (paraplegia), score 5 for moribund state. The day of immunization was considered as EAE day 0 and clinical behavior of mice was scored daily. […]

Where [4] appears, read: P<0.05, SEQ ID of peptide not stated in Example 6.

For “IFNβ: Interferon-beta, first-line treatment for relapsing-remitting multiple sclerosis; comparator”, in the test with CD11b positive cells, the “Percentage of CD11b positive cells in the cerebral cortex” value was “considerably decreased”. Also, the “Percentage of CD45 positive cells in the cerebral cortex” value in the test on CD45 positive cells is listed as “considerably decreased”. For the same substance, the “Reduction of TNFα, IFNβ versus IFNβ analog peptide” value in test [1] is “reduction of these inflammation mediators was more in IFNβ-treated mice”. Moreover, in test [1] (P-value<0.05), the “Plasma level of TNFα compared to the vehicle group” value is given as “significant decrease”. For the same substance, in test [2], the “Reduction of MMP9, IFNβ versus IFNβ analog peptide” value was “reduction of these inflammation mediators was more in IFNβ-treated mice”. For the same substance, the “MMP9 gene expression fold change in the brain tissue compared to the vehicle group” value in test [2] (setting [4]) is reported as “significant decrease”. The “Reduction of IL1β, IFNβ versus IFNβ analog peptide” value with interleukin 1β (IL1β) is on record as “reduction of these inflammation mediators was more in IFNβ-treated mice”. Besides, the “Plasma level of IL1β compared to the vehicle group” value with interleukin 1β (IL1β) (P-value<0.05) is given as “significant decrease”. Also, in the test on IL-17 positive cells, the “Percentage of IL-17 positive cells in the cerebral cortex” value is recorded as “considerably decreased”. Further, the “Reduction of MMP2, IFNβ versus IFNβ analog peptide” value in test [3] is listed as “reduction of these inflammation mediators was more in IFNβ-treated mice”. Besides, the “MMP2 gene expression fold change in the brain tissue compared to the vehicle group” value in test [3] (setting [4]) is on record as “significant decrease”. Moreover, the “Effect of raising the dose on EAE clinical symptoms” value in the test with EAE-induced C57BL/6 mice (20 mg/kg versus 10 mg/kg) was “improved disease protection”. For the same substance, in the test on EAE-induced C57BL/6 mice (10 and 20 mg/kg injected on day 14 of EAE induction), the “Mean clinical score (AUC) versus vehicle group and EAE group” value is “significant reduction in the clinical score”.
